Data: US6620807B1, “Pyridobenzodiazepine and pyridobenzoxazepine carboxyamide vasopressin agonists” (Wyeth, priority 1999, dated 2003)

Target: T1, Vasopressin V2 (Rattus norvegicus, UniProt Q00788)
T1 construct: Vasopressin V2 Agonist Effects of Test Compounds in Normal Conscious Water-loaded Rats; from tissue; host or cells: whole animal: conscious water-loaded Sprague-Dawley rats (V2 receptors of the kidney collecting ducts)
Assay: Vasopressin V2 agonist effects of test compounds in normal conscious water-loaded rats
Format: in vivo
Details: oral dose of 10 mg/Kg, water-loaded Sprague-Dawley (CD) rats; for Urine Volume (% decrease): percent decrease in urine volume vs. control, urine collected for four hours after dosing; for Changes in Urinary Osmolality: osmolality changes expressed as percent of control, urine collected for four hours
Description: Vasopressin V2 Agonist Effects of Test Compounds in Normal Conscious Water-loaded Rats:
Male or female normotensive Sprague-Dawley rats (Charles River Laboratories, Inc., Kingston, N.Y.) of 350-500 g body weight were supplied with standard rodent diet (Purina Rodent Lab. Chow 5001) and water ad libitum. On the day of test, rats were placed individually into metabolic cages equipped with devices to separate the feces from the urine and containers for collection of urine. A test compound or a reference agent was given at an oral dose of 10 mg/Kg in a volume of 10 mL/Kg. The vehicle used was 20% dimethylsulfoxide (DMSO) in 2.5% preboiled corn starch. Thirty minutes after dosing the test compound, rats were gavaged with water at 30 mL/Kg into the stomach using a feeding needle. During the test, rats were not provided with water or food. Urine was collected for four hours after dosing of the test compound. At the end of four hours, urine volume was measured. Urinary osmolality was determined using a Fiske One-Ten Osmometer (Fiske Associates, Norwood, Mass., 02062) or an Advanced CRYOMATIC Osmometer, Model 3C2 (Advanced Instruments, Norwood, Mass.). Determinations of Na^+, K^+ and Cl^− ion were carried out using ion specific electrodes in a Beckman SYNCHRON EL-ISE Electrolyte System analyzer. The urinary osmolality should increase proportionally. In the screening test, two rats were used for each compound. If the difference in the urine volume of the two rats was greater than 50%, a third rat was used.

T1 sequence (Q00788 whole entry): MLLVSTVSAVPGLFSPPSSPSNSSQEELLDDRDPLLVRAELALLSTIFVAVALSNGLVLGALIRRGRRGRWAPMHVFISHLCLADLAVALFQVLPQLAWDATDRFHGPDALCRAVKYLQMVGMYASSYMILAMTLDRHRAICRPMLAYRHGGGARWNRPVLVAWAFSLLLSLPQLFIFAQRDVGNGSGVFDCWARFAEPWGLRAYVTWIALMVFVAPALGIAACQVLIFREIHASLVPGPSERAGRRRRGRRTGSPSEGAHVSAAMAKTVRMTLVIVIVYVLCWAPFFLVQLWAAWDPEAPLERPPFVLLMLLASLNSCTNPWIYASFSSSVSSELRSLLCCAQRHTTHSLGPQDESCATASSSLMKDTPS

Compound | Urine Volume (% decrease) | Changes in Urinary Osmolality
Cn1ccc2cc(C(=O)N3Cc4cccnc4Nc4ccccc43)ccc21 [Example 1] | 74 | 159% of control
O=C(c1ccc2ncsc2c1)N1Cc2cccnc2Nc2ccccc21 [Example 5] | 31 | 78% of control
Cn1ccc2cc(C(=O)N3Cc4cccnc4Oc4ccccc43)ccc21 [Example 6] | 21 | 35% of control

Further lines, results first:

Urine Volume (% decrease) | Changes in Urinary Osmolality | Compound
13 | – | O=C(c1ccc2nonc2c1)N1Cc2cccnc2Nc2ccccc21 [Example 4, Benzo[1,2,5]oxadiazol-5-yl-(5,11-dihydro-benzo[b]pyrido [2.3-e][1,4]Diazepin-6-yl)-methanone]
29 | 54% of control | O=C(c1ccc2c(c1)CCO2)N1Cc2cccnc2Nc2ccccc21 [Example 3, (5,11-Dihydro-benzo[b]pyrido [2.3-e][1,4]Diazepin-6-yl)-(2,3-dihydro-benzofuran-5-yl)-methanone]
61 | 247% of control | O=C(c1ccc2c(c1)OCO2)N1Cc2cccnc2Nc2ccccc21 [Example 2, Benzo [1,3]Dioxol-5-yl-(5,11-dihydro-benzo[b]pyrido [2.3-e][1,4]Diazepin-6-yl)-mothanone]
